In patent US12447153B2, “HER2 mutation inhibitors” (Array BioPharma Inc., priority 2021, dated 2025) one finds IC50 and efflux ratio data, which are given here for 16 compounds.

In series [1] the target is ErbB2 with Exon 20 YVMA insertion (HER2-YVMA) (Homo sapiens (Human), UniProt P04626, INS775YVMA). In words: Cellular Phosphorylation Assay, Assay 4 (constitutive ErbB2 phosphorylation, NIH 3T3 cells). The series is classed as cell-based.
Another series concerns the target EGFR wild type (EGFR WT) (Homo sapiens (Human), UniProt P00533). Description: Cellular Phosphorylation Assay, Assay 5 (EGF-stimulated EGFR phosphorylation, NIH 3T3 cells). The series is classed as cell-based.
In a further series the target is ErbB2 WT (Homo sapiens (Human), UniProt P04626). Description: ErbB Enzyme Assay (HTRF KinEASE-TK), Assay 2. Type of series: biochemical.
The target in another series is EGFR (Homo sapiens (Human), UniProt P00533). In words: ErbB Enzyme Assay (HTRF KinEASE-TK), Assay 3. Type of series: biochemical. For orientation: TR-FRET usually uses a lanthanide donor and a delayed reading to cut background.
For series [2], the system named is BCRP. In words: BCRP MDCKII efflux assay (Assay 7). The series is classed as in vitro ADME. The settings on record: dog; efflux ratio Papp(B-A)/Papp(A-B), BCRP MDCKII cells; read-out: Assay 7 Pe Ratio. The protocol: (§1) Assay conditions included with and without the BCRP-specific inhibitor, KO143, at a concentration of 0.3 μM to ascertain the contribution of BCRP to the efflux value of the test compound.
(§2) Final organic concentration in the assay was 1%.

For the next series, the target named is MDR1 (P-gp) (Homo sapiens (Human), UniProt P08183). Description: in vitro. The settings on record: pig, LLC-PK1.
In series [3] the target is BCRP (Homo sapiens (Human), UniProt Q9UNQ0). Description: BCRP MDCKII efflux assay (Assay 7). Type of series: in vitro ADME. The conditions noted are these: dog; efflux ratio Papp(B-A)/Papp(A-B), BCRP MDCKII cells; read-out: Assay 7 Pe Ratio. The protocol:
as §1, §2

[4] abbreviates: cellular ErbB2 YVMA phosphorylation.
Setting [5] is: cellular EGFR WT phosphorylation, EGF-stimulated.
The mark [6] stands for this setting: EGF-stimulated EGFR WT phosphorylation.

Sequence of ErbB2 with Exon 20 YVMA insertion (HER2-YVMA) (P04626 other isoform, or with tags, fused parts or gaps ins YVMA behind 775): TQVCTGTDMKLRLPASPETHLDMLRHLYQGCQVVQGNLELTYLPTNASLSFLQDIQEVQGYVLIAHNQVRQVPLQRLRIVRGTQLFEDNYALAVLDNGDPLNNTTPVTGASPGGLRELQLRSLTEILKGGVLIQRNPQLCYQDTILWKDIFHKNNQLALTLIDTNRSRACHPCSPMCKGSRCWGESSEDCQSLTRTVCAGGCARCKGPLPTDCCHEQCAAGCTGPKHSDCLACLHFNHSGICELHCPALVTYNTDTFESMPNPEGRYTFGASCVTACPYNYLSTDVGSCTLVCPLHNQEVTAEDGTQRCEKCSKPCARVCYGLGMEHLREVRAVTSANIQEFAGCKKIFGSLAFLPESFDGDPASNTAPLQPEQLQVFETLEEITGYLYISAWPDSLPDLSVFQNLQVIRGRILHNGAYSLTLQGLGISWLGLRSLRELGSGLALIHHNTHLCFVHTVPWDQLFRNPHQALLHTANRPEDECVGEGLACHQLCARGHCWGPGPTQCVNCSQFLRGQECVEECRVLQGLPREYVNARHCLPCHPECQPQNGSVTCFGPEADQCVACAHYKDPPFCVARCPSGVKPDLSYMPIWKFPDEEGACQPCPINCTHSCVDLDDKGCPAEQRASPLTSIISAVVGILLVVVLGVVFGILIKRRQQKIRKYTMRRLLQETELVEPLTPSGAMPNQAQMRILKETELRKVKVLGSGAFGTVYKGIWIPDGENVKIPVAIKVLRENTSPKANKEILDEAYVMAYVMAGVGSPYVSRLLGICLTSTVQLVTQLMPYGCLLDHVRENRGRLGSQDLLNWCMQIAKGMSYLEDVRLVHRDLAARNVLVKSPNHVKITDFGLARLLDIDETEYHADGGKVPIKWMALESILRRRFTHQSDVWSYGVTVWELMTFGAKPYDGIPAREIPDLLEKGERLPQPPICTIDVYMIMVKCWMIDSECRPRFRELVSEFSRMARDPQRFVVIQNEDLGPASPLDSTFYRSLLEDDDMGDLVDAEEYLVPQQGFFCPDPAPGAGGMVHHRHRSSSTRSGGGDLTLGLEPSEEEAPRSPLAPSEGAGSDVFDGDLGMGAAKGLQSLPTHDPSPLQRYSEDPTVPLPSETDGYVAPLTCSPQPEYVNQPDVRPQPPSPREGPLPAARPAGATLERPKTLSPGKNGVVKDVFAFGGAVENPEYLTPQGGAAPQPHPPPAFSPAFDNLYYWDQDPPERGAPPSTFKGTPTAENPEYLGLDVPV
Sequence of MDR1 (P-gp) (P08183 whole entry): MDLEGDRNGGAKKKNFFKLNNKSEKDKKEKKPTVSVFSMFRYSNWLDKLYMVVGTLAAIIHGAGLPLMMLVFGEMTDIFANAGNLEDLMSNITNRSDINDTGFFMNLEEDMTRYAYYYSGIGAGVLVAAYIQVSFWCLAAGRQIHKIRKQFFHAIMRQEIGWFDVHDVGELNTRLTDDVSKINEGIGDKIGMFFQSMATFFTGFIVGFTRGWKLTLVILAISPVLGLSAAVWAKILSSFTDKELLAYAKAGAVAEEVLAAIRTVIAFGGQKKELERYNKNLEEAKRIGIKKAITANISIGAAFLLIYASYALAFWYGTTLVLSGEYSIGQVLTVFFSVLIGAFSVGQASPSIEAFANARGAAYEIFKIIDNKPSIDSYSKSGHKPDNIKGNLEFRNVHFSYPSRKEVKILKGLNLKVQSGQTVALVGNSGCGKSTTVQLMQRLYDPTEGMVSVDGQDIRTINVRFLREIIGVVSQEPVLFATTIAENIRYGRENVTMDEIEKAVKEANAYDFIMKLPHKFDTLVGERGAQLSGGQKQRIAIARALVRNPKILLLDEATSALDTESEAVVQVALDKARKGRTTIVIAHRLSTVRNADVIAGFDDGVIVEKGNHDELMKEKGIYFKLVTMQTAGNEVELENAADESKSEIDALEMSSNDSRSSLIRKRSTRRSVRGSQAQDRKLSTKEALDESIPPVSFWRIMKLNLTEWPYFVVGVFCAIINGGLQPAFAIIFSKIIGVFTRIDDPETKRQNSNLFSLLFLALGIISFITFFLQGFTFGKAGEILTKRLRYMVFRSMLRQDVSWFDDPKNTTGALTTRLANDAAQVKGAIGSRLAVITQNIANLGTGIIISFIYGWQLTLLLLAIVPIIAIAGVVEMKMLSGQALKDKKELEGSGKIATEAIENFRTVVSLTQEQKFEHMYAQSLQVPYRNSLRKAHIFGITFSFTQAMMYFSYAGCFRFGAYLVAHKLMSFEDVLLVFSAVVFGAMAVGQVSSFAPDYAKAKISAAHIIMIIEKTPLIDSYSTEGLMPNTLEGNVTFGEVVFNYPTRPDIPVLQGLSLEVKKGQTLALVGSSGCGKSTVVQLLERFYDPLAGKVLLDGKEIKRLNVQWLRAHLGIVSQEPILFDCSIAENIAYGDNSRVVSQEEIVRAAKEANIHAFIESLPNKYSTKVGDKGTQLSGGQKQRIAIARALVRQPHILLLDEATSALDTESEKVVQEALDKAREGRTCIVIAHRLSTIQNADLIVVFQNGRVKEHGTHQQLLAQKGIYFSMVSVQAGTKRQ
Sequence of EGFR (P00533 25-1210): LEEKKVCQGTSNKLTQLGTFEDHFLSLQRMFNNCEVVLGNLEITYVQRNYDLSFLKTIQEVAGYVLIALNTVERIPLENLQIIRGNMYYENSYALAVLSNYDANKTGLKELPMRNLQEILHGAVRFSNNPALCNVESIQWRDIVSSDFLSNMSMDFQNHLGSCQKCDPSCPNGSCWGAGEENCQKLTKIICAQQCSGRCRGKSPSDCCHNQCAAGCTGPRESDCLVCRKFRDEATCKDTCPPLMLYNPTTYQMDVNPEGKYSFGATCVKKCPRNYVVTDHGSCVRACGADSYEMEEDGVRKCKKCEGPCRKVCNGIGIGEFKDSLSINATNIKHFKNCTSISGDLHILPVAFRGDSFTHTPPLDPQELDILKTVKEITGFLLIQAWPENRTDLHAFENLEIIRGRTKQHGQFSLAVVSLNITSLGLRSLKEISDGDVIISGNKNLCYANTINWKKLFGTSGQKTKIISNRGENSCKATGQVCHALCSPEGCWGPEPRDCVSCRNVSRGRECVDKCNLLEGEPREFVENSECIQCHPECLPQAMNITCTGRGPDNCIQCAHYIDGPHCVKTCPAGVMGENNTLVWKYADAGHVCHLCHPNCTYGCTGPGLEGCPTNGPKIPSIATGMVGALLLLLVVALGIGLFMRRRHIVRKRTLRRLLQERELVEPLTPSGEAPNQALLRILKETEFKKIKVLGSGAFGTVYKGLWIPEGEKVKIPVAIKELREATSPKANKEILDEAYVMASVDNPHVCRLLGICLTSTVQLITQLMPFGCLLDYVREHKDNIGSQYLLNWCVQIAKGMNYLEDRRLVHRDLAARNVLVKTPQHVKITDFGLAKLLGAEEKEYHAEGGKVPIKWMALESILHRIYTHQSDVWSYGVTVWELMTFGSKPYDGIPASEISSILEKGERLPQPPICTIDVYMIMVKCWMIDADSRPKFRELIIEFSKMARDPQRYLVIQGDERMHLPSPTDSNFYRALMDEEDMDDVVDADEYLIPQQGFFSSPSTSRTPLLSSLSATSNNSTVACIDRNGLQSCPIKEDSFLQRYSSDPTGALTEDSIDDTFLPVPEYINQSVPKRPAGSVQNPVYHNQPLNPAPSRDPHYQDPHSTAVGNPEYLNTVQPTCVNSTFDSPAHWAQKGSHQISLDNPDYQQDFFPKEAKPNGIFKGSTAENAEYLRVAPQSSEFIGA
Sequence of EGFR wild type (EGFR WT) (P00533 25-1210): as above

In the case of `C=CC(=O)N1CC2CCC(C1)N2c1ccc2ncnc(Nc3cc(C)c(Oc4ccn5ncnc5c4)cc3F)c2n1` [Example 454], the IC50 (usually the concentration that inhibits the measured activity by half) was 0.0141 µM in series [1] (setting [4]), 0.68 µM against EGFR wild type (EGFR WT) (setting [5]), 0.0356 µM against ErbB2 WT (ErbB2 WT enzyme assay) and 1.18 µM against EGFR (EGFR enzyme assay). Besides, the efflux ratio at 2 h, 1 µM with BCRP [2] worked out at 0.6; at MDR1 (P-gp), 0.8.
As to `C=CC(=O)N1[C@@H]2CC[C@H]1C[C@@H](c1ccc3ncnc(Nc4ccc(Oc5ccn6ncnc6c5)c(Cl)c4F)c3n1)C2` [Example 214, 1-((1R,3r,5S)-3-(4-((4-([1,2,4]triazolo[1,5-a]pyridin-7-yloxy)-3-chloro-2-fluorophenyl)amino)pyrido[3,2-d]pyrimidin-6-yl)-8-azabicyclo[3.2.1]octan-8-yl)prop-2-en-1-one], the IC50 in series [1] (ErbB2 YVMA phosphorylation) was 0.025 µM; at EGFR wild type (EGFR WT) (setting [6]) it was not below 5 µM; at ErbB2 WT (ErbB2 WT enzyme) it was 0.0216 µM; against EGFR (EGFR enzyme), 0.279 µM. The efflux ratio at 2 h, 1 µM at BCRP [3] was 3.8; at MDR1 (P-gp), 1.4.
Turning to `C=CC(=O)N1CC[C@@H]2C[C@H]1CN2c1ccc2ncnc(Nc3ccc(Oc4ccn5ncnc5c4)c(C)c3F)c2n1` [Example 65, 1-((1S,5R)-6-(4-((4-([1,2,4]triazolo[1,5-a]pyridin-7-yloxy)-2-fluoro-3-methylphenyl)amino)pyrido[3,2-d]pyrimidin-6-yl)-2,6-diazabicyclo[3.2.1]octan-2-yl)prop-2-en-1-one], the IC50 in series [1] (ErbB2 YVMA phosphorylation) was found to be 0.0042 µM; at EGFR wild type (EGFR WT) (setting [6]), 0.146 µM; at ErbB2 WT (ErbB2 WT enzyme), 0.0174 µM; at EGFR (EGFR enzyme), 0.17 µM. Also, the efflux ratio at 2 h, 1 µM at BCRP [3] came to 4; at MDR1 (P-gp) it was 1.4.
As to `C=CC(=O)N1C[C@H]2C[C@H](c3ccc4ncnc(Nc5ccc(Oc6ccn7ncnc7c6)c(Cl)c5F)c4n3)[C@@H]1C2` [Example 230, 1-((1 S,4S,6S)-6-(4-((4-([1,2,4]triazolo[1,5-a]pyridin-7-yloxy)-3-chloro-2-fluorophenyl)amino)pyrido[3,2-d]pyrimidin-6-yl)-2-azabicyclo[2.2.1]heptan-2-yl)prop-2-en-1-one], the IC50 is 0.0214 µM in series [1] (ErbB2 YVMA phosphorylation), 0.996 µM against EGFR wild type (EGFR WT) (setting [6]), 0.0136 µM against ErbB2 WT (ErbB2 WT enzyme) and 0.312 µM against EGFR (EGFR enzyme). The efflux ratio at 2 h, 1 µM on BCRP [3] is 2.7; on MDR1 (P-gp), 0.8.
On to `C=CC(=O)N1CCN(c2ccc3ncnc(Nc4ccc(Oc5ccn6ncnc6c5)c(Cl)c4F)c3n2)CC1` [Example 30, 1-(4-(4-((4-([1,2,4]triazolo[1,5-a]pyridin-7-yloxy)-3-chloro-2-fluorophenyl)amino)pyrido[3,2-d]pyrimidin-6-yl)piperazin-1-yl)prop-2-en-1-one], for which the concentration for half-maximal inhibition (IC50) in series [1] (ErbB2 YVMA phosphorylation) is 0.0023 µM; at EGFR wild type (EGFR WT) (setting [6]), 0.0876 µM; against ErbB2 WT (ErbB2 WT enzyme), 0.006 µM; against EGFR (EGFR enzyme), 0.2 µM. For the same compound, the values for the efflux ratio at 2 h, 1 µM at BCRP [3] and on MDR1 (P-gp) were 5 and 1.5, respectively.
For `C=CC(=O)N1CCN(c2ccc3ncnc(Nc4ccc(Oc5cnc6c(c5)ncn6C)c(Cl)c4)c3n2)CC1(C)C` [Example 249], the 50% inhibitory concentration (IC50) in series [1] (ErbB2 YVMA phosphorylation) stood at 0.0087 µM; on EGFR wild type (EGFR WT) (setting [6]) it was 2.05 µM; against ErbB2 WT (ErbB2 WT enzyme) it was 0.0118 µM; on EGFR (EGFR enzyme), 1.33 µM. Also, the efflux ratio at 2 h, 1 µM stood at 5.9 on BCRP [3] and 1.4 at MDR1 (P-gp).
Take `C=CC(=O)N1C[C@H]2CC[C@@H]1C[C@H]2c1ccc2ncnc(Nc3ccc(Oc4ccn5ncnc5c4)c(C)c3F)c2n1` (racemic) [Example 218, rac-1-((1R,4S,5R)-5-(4-((4-([1,2,4]triazolo[1,5-a]pyridin-7-yloxy)-2-fluoro-3-methylphenyl)amino)pyrido[3,2-d]pyrimidin-6-yl)-2-azabicyclo[2.2.2]octan-2-yl)prop-2-en-1-one]: the half-inhibitory concentration (IC50) in series [1] (ErbB2 YVMA phosphorylation) is 0.0327 µM; at EGFR wild type (EGFR WT) (setting [6]), not below 5 µM; on ErbB2 WT (ErbB2 WT enzyme), 0.0244 µM; at EGFR (EGFR enzyme), 1.42 µM. Moreover, the efflux ratio at 2 h, 1 µM worked out at 2.6 at BCRP [3] and 1.4 at MDR1 (P-gp).
On to `C=CC(=O)N1CCN(c2ccc3ncnc(Nc4cc(C)c(Oc5cnc6c(c5)ncn6C)cc4F)c3n2)CC1(C)C` [Example 357], for which the half-maximal inhibitory concentration (IC50) in series [1] (setting [4]) was 0.0171 µM; against EGFR wild type (EGFR WT) (setting [5]), not below 5 µM; against ErbB2 WT (ErbB2 WT enzyme assay) it was 0.122 µM; on EGFR (EGFR enzyme assay), 5.05 µM. The efflux ratio at 2 h, 1 µM was determined as 6.2 on BCRP [3] and 1.6 on MDR1 (P-gp).
Take `C=CC(=O)N1C[C@H]2CC[C@@H]1[C@H](c1ccc3ncnc(Nc4ccc(Oc5cnc6c(c5)ncn6C)c(C)c4F)c3n1)C2` [Example 426]: the IC50 in series [1] (setting [4]) was 0.0332 µM; against EGFR wild type (EGFR WT) (setting [5]), not below 5 µM; against ErbB2 WT (ErbB2 WT enzyme assay), 0.183 µM; on EGFR (EGFR enzyme assay) it was not below 10 µM. In addition, the figures for the efflux ratio at 2 h, 1 µM on BCRP [3] and at MDR1 (P-gp) were 2 and 0.7, respectively.
Take `C=CC(=O)N1CCN(c2ccc3ncnc(Nc4cc(C)c(Oc5ccc6c(c5)ncn6C)cc4F)c3n2)C[C@H]1C(C)C` [Example 254]: the 50% inhibitory concentration (IC50) in series [1] (setting [4]) was 0.0232 µM; against EGFR wild type (EGFR WT) (setting [5]) it was not below 5 µM; on ErbB2 WT (ErbB2 WT enzyme assay), 0.0926 µM; against EGFR (EGFR enzyme assay), 5.34 µM. Moreover, the efflux ratio at 2 h, 1 µM on BCRP [3] is 2.4; at MDR1 (P-gp), 1.3.
In the case of `C=CC(=O)N1CCC(Oc2ccc3ncnc(Nc4ccc(Oc5ccc6cn(C)nc6c5)c(Cl)c4F)c3n2)CC1` [Example 9, 1-(4-((4-((3-chloro-2-fluoro-4-((2-methyl-2H-indazol-6-yl)oxy)phenyl)amino)pyrido[3,2-d]pyrimidin-6-yl)oxy)piperidin-1-yl)prop-2-en-1-one], the IC50 in series [1] (ErbB2 YVMA phosphorylation) is 0.066 µM; on EGFR wild type (EGFR WT) (setting [6]) it was 0.84 µM; at ErbB2 WT (ErbB2 WT enzyme), 0.977 µM; on EGFR (EGFR enzyme), not below 10 µM. Besides, the results for the efflux ratio at 2 h, 1 µM at BCRP [3] and on MDR1 (P-gp) were 2.4 and 1.7, respectively.
With `C=CC(=O)N1[C@@H]2CC[C@H]1[C@H](c1ccc3ncnc(Nc4ccc(Oc5ccn6ncnc6c5)c(C)c4)c3n1)C2` (racemic) [Example 220, rac-1-((1 S,2R,4R)-2-(4-((4-([1,2,4]triazolo[1,5-a]pyridin-7-yloxy)-3-methylphenyl)amino)pyrido[3,2-d]pyrimidin-6-yl)-7-azabicyclo[2.2.1]heptan-7-yl)prop-2-en-1-one], the IC50 in series [1] (ErbB2 YVMA phosphorylation) was 0.0185 µM; at EGFR wild type (EGFR WT) (setting [6]) it was not below 5 µM; against ErbB2 WT (ErbB2 WT enzyme), 0.0179 µM; at EGFR (EGFR enzyme), 0.412 µM. Further, the efflux ratio at 2 h, 1 µM on BCRP [3] stood at 2.2; on MDR1 (P-gp), 1.3.
As for `C=CC(=O)N1CC2(C1)CN(c1ccc3ncnc(Nc4ccc(Oc5ccn6ncnc6c5)c(Cl)c4F)c3n1)C2` [Example 101, 1-(6-(4-((4-([1,2,4]triazolo[1,5-a]pyridin-7-yloxy)-3-chloro-2-fluorophenyl)amino)pyrido[3,2-d]pyrimidin-6-yl)-2,6-diazaspiro[3.3]heptan-2-yl)prop-2-en-1-one], the 50% inhibitory concentration (IC50) in series [1] (ErbB2 YVMA phosphorylation) was 0.032 µM; against EGFR wild type (EGFR WT) (setting [6]), not below 5 µM; against ErbB2 WT (ErbB2 WT enzyme), 0.0392 µM; at EGFR (EGFR enzyme), 1.38 µM. The efflux ratio at 2 h, 1 µM is 2.5 at BCRP [3] and 1.9 at MDR1 (P-gp).
As to `C=CC(=O)N1C[C@@H](c2ccc3ncnc(Nc4ccc(Oc5ccc6c(c5)ncn6C)c(C)c4F)c3n2)C[C@@H]1C` [Example 191, 1-((2S,4S)-4-(4-((2-fluoro-3-methyl-4-((1-methyl-1H-benzo[d]imidazol-5-yl)oxy)phenyl)amino)pyrido[3,2-d]pyrimidin-6-yl)-2-methylpyrrolidin-1-yl)prop-2-en-1-one], the IC50 in series [1] (ErbB2 YVMA phosphorylation) was found to be 0.015 µM; at EGFR wild type (EGFR WT) (setting [6]), 2.9 µM; against ErbB2 WT (ErbB2 WT enzyme), 0.0267 µM; against EGFR (EGFR enzyme), 1.82 µM. Also, the efflux ratio at 2 h, 1 µM is 2.5 on BCRP [3] and 0.9 on MDR1 (P-gp).
On to `C=CC(=O)N1C[C@@H](c2ccc3ncnc(Nc4ccc(Oc5ccn6ncnc6c5)c(C)c4F)c3n2)C[C@@H]1C` (mixture of isomers) [Example 385], for which the concentration for half-maximal inhibition (IC50) is 0.0294 µM in series [1] (setting [4]), 1.95 µM against EGFR wild type (EGFR WT) (setting [5]), 0.0283 µM at ErbB2 WT (ErbB2 WT enzyme assay) and 0.848 µM on EGFR (EGFR enzyme assay). The efflux ratio at 2 h, 1 µM on BCRP [3] came to 5; at MDR1 (P-gp) it was 1.3.
For the compound `C=CC(=O)N1CCC(c2ccc3ncnc(Nc4ccc(Oc5ccc6c(c5)ncn6C)c(C)c4F)c3n2)CC12CC2` (stereo not drawn) [Example 128, 1-(7-(4-((2-fluoro-3-methyl-4-((1-methyl-1H-benzo[d]imidazol-5-yl)oxy)phenyl)amino)pyrido[3,2-d]pyrimidin-6-yl)-4-azaspiro[2.5]octan-4-yl)prop-2-en-1-one], the IC50 in series [1] (ErbB2 YVMA phosphorylation) was 0.0277 µM; against EGFR wild type (EGFR WT) (setting [6]) it was 2.62 µM; against ErbB2 WT (ErbB2 WT enzyme), 0.0444 µM; on EGFR (EGFR enzyme), not below 10 µM. Also, the results for the efflux ratio at 2 h, 1 µM at BCRP [3] and on MDR1 (P-gp) were 2.7 and 0.6, respectively.
